Legend:
EV-A71 [1] = experiment: Extracellular viral RNA / virus yield in supernatant by qRT-PCR; type: cell-based, Enterovirus A71 (SHZH98 strain); conditions: RD cells; for Virus yield in the supernatants vs scrambled control: siRNA 48 hours, EV-A71 MOI of 10, nine hours p.i.
Procedure: (§1) Total RNA was extracted from cell lysis using TRIzol reagent (Ambion, Life Technologies). Quantitative Real-time PCR (qRT-PCR) was performed using SYBR Green Mix (Life Technologies) on applied Biosystems StepOne real-time PCR system. The comparative ΔΔCt method was used to calculate the relative expression of microRNA or mRNA normalized to β-actin mRNA.
(§2) The mRNA level of Hsc70 was detected by qRT-PCR and the protein level was detected by western blotting. […] The extracellular virus levels were detected by qRT-PCR. […] The viral titer in the supernatant was determined by TCID50 assay.
To address the drug target potential of Hsc70 against EV-A71, experiments were conducted to examine if Ver-155008, a chemical inhibitor of Hsc70, could protect cells from EV-A71 infection. In this regard, RD cells were pre-treated for 2 hours with Ver-155008, then infected the cells with EV-A71 for another 9 hours at an MOI of 10.
In FIG. 5A, cell images under light microscope. In FIG. 5B, proteins levels of VP0/2 by western blot are shown. In FIG. 5C, EV-A71 IRES activity detected by luciferase activities are shown. (n=3; ***, p<0.001). In FIG. 5D, there is shown the extracellular viral RNA levels were examined by qRT-PCR.

EV-A71 viral protein VP1 = experiment: Western blot of viral protein in infected RD cells; type: cell-based, Enterovirus A71 (SHZH98 strain)
Procedure: (§3) Total protein was extracted from cell lysis in RIPA buffer with protease inhibitor and phosphatase Inhibitor (Roche). A total of 10-30 μg protein was loaded for SDS-PAGE and transferred onto PVDF membranes. Membranes were blocked with 5% non-fat milk in Tris-buffered saline buffer with 0.1% Tween-20 (TBST) for 1 hour at room temperature and incubated with primary antibodies overnight at 4° C. After washing with TBST three times, the membranes were incubated with the corresponding horseradish peroxidase (HRP)-conjugated secondary antibodies for 1 hour at room temperature. The Hsc70 protein level was detected using an Hsc70-specific antibody (sc-13132, Santa Cruz Biotechnology, USA). The band density was quantified using Quantity One software (Bio-Rad). GADPH served as loading control. The western blotting was carried out in three times for confirmation of results.
The mRNA level of Hsc70 was detected by qRT-PCR and the protein level was detected by western blotting. […] The extracellular virus levels were detected by qRT-PCR. […] The viral titer in the supernatant was determined by TCID50 assay. […]
(§4) In FIG. 5A, cell images under light microscope. […] In FIG. 5C, EV-A71 IRES activity detected by luciferase activities are shown. […]

EV-A71 [2] = experiment: 2Apro-regulated viral protein production in HEK 293T cells, western blot (VP0/2 antibody); type: cell-based, Enterovirus A71 (SHZH98 strain); conditions: si-Hsc70 then 2Apro expression plasmid, EV-A71 MOI of 5 for 9 hours
Procedure: as §3
In FIG. 4A, HEK 293T cells were co-transfected with pHsc70, pIRES reporter plasmid and 2A^pro-expressing plasmid or empty vector for forty-eight hours, then the reporter activity was measured. In FIG. 4B, HEK 293T cell extract was incubated with the His-tagged 2A^pro, pulled down and then analyzed by western blotting. […] The cleavage products were assessed by immunoblotting. […] The viral protein production was detected by western blotting by using VP0/2 antibody (n=3).

EV-A71 [3] = experiment: Intracellular viral RNA (positive and negative strand) by qRT-PCR; type: cell-based, Enterovirus A71 (SHZH98 strain); conditions: RD cells
Procedure: as §1, §2

EV-A71 [4] = experiment: Viral titer in supernatant by TCID50 assay; type: cell-based, Enterovirus A71 (SHZH98 strain); conditions: RD cells, siRNA 48 hours, EV-A71 9 hours, culture media
Procedure: (§5) Human rhabdomyosarcoma (RD) cells were purchased from ATCC (CCL-136). The Dulbecco's modified Eagle's medium (DMEM) with 10% fetal bovine serum (FBS) were used for cell culture, supplemented with 100 U/ml penicillin and 100 μg/ml streptomycin Propagation of EV-A71 (SHZH98 strain, accession number AF302996) was the same as previous report. The viral titer was measured by TCID50 assays.
as §2

RD cells = experiment: Cell viability assay (MTT); type: cell-based, Human; conditions: serial dilution of Ver-155008 for 24 hours
Procedure: RD cells were seeded in 96-well plates (5,000 cells/well) and treated with serial dilution of Ver-155008 for 24 hours for cell viability assay. Ten μL of MTT was added to cultured cells in 100 μl culture medium and incubated at 37° C. for 4 h. Subsequently 100 μl of Dimethyl Sulfoxide were added. The optical density was measured at a wavelength of 570 nm. The cell viability assay was carried out in triplicates by three independent experiments as previously described.

EV-A71 IRES = experiment: Dual-luciferase IRES reporter assay; type: cell-based; conditions: Ver-155008 treatment
From the text: Human Hsc70 (Accession NM_006597) was purchased from Addgene (Cat. No. 19541). The EV-A71 report plasmid pIRES was constructed as previously described. In detail, the EV-A71 reportor plasmid pIRES was constructed as follows: Renilla Luciferase gene (RLuc) was inserted into pcDNA4/HisMax B between BamHI and EcoRV sites; EV-A71 IRES was amplified from EV-A71 virus strain (SHZH98). Firefly Luciferase gene (FLuc) was amplified by using primer which has overlap sequence with the C-terminal of EV-A71 IRES. Finally, the construct IRES-FLuc were then amplified by using overlap PCR, and inserted into the downstream of the Renilla Luciferase gene between EcoRV and XbarI sites. […]
HEK 293T cells were seeded into a 24-well plate and incubated at 37° C. overnight and then transfected with Hsc70 expression plasmid (pHsc70) or siRNA. […] The activity of RLuc and FLuc were assessed by bioluminometer using a dual-luciferase reporter assay (Promega) according to the manufacturer.
FIG. 3A is concerned with 293T cells were co-transfected with si-Hsc70 and IRES reporter plasmid for forty-eight hours. […] Proteins which interact with the RNAs were detected by immunoblotting with specific antibody. […]
as §4

EV-A71 [5] = experiment: Cytopathic effect (CPE) assay; type: cell-based, Enterovirus A71 (SHZH98 strain)
Procedure: as §5
CPE assay was used to test the antiviral effect of Ver-155008. Ver-155008 was from Selleckchem (Cat. No. S7751). RD cells were seed in 96-well plate at 37° C. overnight, was then treated with indicated concentration of Ver-155008. […] CPE was monitored and recorded from time to time under a phase-contrast microscope. The concentration required to reduce the EV-A71-induced CPE by 50% (IC50) was determined by using the nonlinear regression analysis of SPSS 17.0. Data were shown as mean values with standard deviations from three independent assays. Selectivity index (SI) is calculated by the ratio of CC50 to IC50.

Row | Compound | Virus yield in the supernatants vs scrambled control (EV-A71 [1]) | EV-A71 viral protein VP1 (western blot) vs control cells (EV-A71 viral protein VP1; RD cells with Hsc70 knockdown, EV-A71 MOI of 10) | 2Apro-elicited production of viral protein after knockdown of Hsc70 (EV-A71 [2]) | Decrease of negative strand viral RNA level (EV-A71 [3]; EV-A71 MOI of 10, 3 hours p.i.) | Decrease of positive strand viral RNA level (EV-A71 [3]; EV-A71 MOI of 10, 3 hours p.i.) | Decrease of negative strand viral RNA level (EV-A71 [3]; EV-A71 MOI of 10, 6 hours p.i.) | Decrease of positive strand viral RNA level (EV-A71 [3]; EV-A71 MOI of 10, 6 hours p.i.) | Decrease of negative strand viral RNA level (EV-A71 [3]; EV-A71 MOI of 10, 9 hours p.i.) | Decrease of positive strand viral RNA level (EV-A71 [3]; EV-A71 MOI of 10, 9 hours p.i.) | Inhibitory effect on viral RNA levels (EV-A71 [3]; EV-A71 MOI of 10, 12 hours p.i.) | Decrease of virus titer vs scramble siRNA control (TCID50) (EV-A71 [4]) | Viral VP1 levels (western blot) (EV-A71 viral protein VP1; RD cells pre-treated 2 hours with Ver-155008, EV-A71 MOI of 10, 9 hours) | CC50 (RD cells; read-out: Cytotoxity CC50) [µM] | CC90 (RD cells; read-out: Cytotoxity CC90) [µM] | EV-A71 IRES activity (luciferase) (EV-A71 IRES) | Decrease of secreted virions (extracellular viral RNA, qRT-PCR) (EV-A71 [1]; 8 μM, EV-A71 MOI of 10, 9 hours) [%] | IC50 (EV-A71 [5]; RD cells infected with EV-A71 at MOI of 0.01, read-out: Antiviral activity IC50 (concentration reducing EV-A71-induced CPE by 50%)) [µM] | Cytopathic effect (CPE) (EV-A71 [5]; RD cells, 8 μM, 2 h pre-treatment, EV-A71 MOI of 10 for 9 hours) | Selective Index SI (CC50/IC50) (EV-A71 [5]; RD cells, EV-A71)
1 | 5′-CCUAAAUUCGUAGCAAAUU-3′ (SEQ ID NO: 2) (other siRNA strand not cited, further chemistry not given here) [si-Hsc70-2, small interfering RNA targeting human Hsc70 (NM_006597), synthesized from Genepharma] | obviously decreased |  |  |  |  |  |  |  |  |  |  |  |  |  |  |  |  |  | 
2 | 5′-UAAUUCUAAGUACAUUGAGACCAGC-3′ (SEQ ID NO: 1) (other siRNA strand not cited, further chemistry not given here) [si-Hsc70-1, small interfering RNA targeting human Hsc70 (NM_006597), synthesized from Genepharma] | obviously decreased | significantly decreased | failed to elicit the production of viral protein | about 86% | about 86% | about 70% | about 70% | about 70% | about 70% | still significant | more than 10 times |  |  |  |  |  |  |  | 
3 | N#Cc1ccc(COC[C@H]2O[C@@H](n3c(NCc4ccc(Cl)c(Cl)c4)nc4c(N)ncnc43)[C@H](O)[C@@H]2O)cc1 [Ver-155008] |  |  |  |  |  |  |  |  |  |  |  | obviously repressed by Ver-155008 in a dose dependent manner | 47.7 | 91.9 ± 0.94 | declined in a dose-dependent manner | 55 | 2.01 | nearly no obvious cytopathic effect | 23.71
